Results published in the supplement of paper PMC11451515.

Tested on: NOMO1
Assay: cell viability relative to DMSO control; higher = less cytotoxic
Conditions: 48 h
Outline: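 Viability was expressed as a per-plate percentage of DMSO wells, with cell-free wells as background. Leukemia cells (NOMO1 or SEM at 500 cells/well, P12-Ichikawa at 1000 cells/well) were adapted for at least four passages in each medium and seeded in 1536-well plates (5 μl). Library compounds in DMSO were pin-dosed over an 11-point threefold series from 47 μM to 0.79 nM, and CellTiter-Glo One luminescence was read after 48 h at 37°C.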

[1] = RPMI 5 mM glucose + 10% FBS, 0.000781 µM
[2] = RPMI 5 mM glucose + 10% FBS, 0.00234 µM
[3] = RPMI 5 mM glucose + 10% FBS, 0.00702 µM
[4] = RPMI 5 mM glucose + 10% FBS, 0.0211 µM
[5] = RPMI 5 mM glucose + 10% FBS, 0.0632 µM
[6] = RPMI 5 mM glucose + 10% FBS, 0.19 µM
[7] = RPMI 5 mM glucose + 10% FBS, 0.569 µM
[8] = RPMI 5 mM glucose + 10% FBS, 1.71 µM
[9] = RPMI 5 mM glucose + 10% FBS, 5.12 µM
[10] = RPMI 5 mM glucose + 10% FBS, 15.4 µM
[11] = RPMI 5 mM glucose + 10% FBS, 46.1 µM
[12] = HPLM + 10% dialyzed FBS, 0.000781 µM
[13] = HPLM + 10% dialyzed FBS, 0.00234 µM
[14] = HPLM + 10% dialyzed FBS, 0.00702 µM
[15] = HPLM + 10% dialyzed FBS, 0.0211 µM
[16] = HPLM + 10% dialyzed FBS, 0.0632 µM
[17] = HPLM + 10% dialyzed FBS, 0.19 µM
[18] = HPLM + 10% dialyzed FBS, 0.569 µM
[19] = HPLM + 10% dialyzed FBS, 1.71 µM
[20] = HPLM + 10% dialyzed FBS, 5.12 µM
[21] = HPLM + 10% dialyzed FBS, 15.4 µM
[22] = HPLM + 10% dialyzed FBS, 46.1 µM
[23] = RPMI 5 mM glucose + 10% dialyzed FBS, 0.000781 µM
[24] = RPMI 5 mM glucose + 10% dialyzed FBS, 0.00234 µM
[25] = RPMI 5 mM glucose + 10% dialyzed FBS, 0.00702 µM
[26] = RPMI 5 mM glucose + 10% dialyzed FBS, 0.0211 µM
[27] = RPMI 5 mM glucose + 10% dialyzed FBS, 0.0632 µM
[28] = RPMI 5 mM glucose + 10% dialyzed FBS, 0.19 µM
[29] = RPMI 5 mM glucose + 10% dialyzed FBS, 0.569 µM
[30] = RPMI 5 mM glucose + 10% dialyzed FBS, 1.71 µM
[31] = RPMI 5 mM glucose + 10% dialyzed FBS, 5.12 µM
[32] = RPMI 5 mM glucose + 10% dialyzed FBS, 15.4 µM
[33] = RPMI 5 mM glucose + 10% dialyzed FBS, 46.1 µM

| SMILES | cell viability [1] [%] | cell viability [2] [%] | cell viability [3] [%] | cell viability [4] [%] | cell viability [5] [%] | cell viability [6] [%] | cell viability [7] [%] | cell viability [8] [%] | cell viability [9] [%] | cell viability [10] [%] | cell viability [11] [%] | cell viability [12] [%] | cell viability [13] [%] | cell viability [14] [%] | cell viability [15] [%] | cell viability [16] [%] | cell viability [17] [%] | cell viability [18] [%] | cell viability [19] [%] | cell viability [20] [%] | cell viability [21] [%] | cell viability [22] [%] | cell viability [23] [%] | cell viability [24] [%] | cell viability [25] [%] | cell viability [26] [%] | cell viability [27] [%] | cell viability [28] [%] | cell viability [29] [%] | cell viability [30] [%] | cell viability [31] [%] | cell viability [32] [%] | cell viability [33] [%] |
| --- | --- | --- | --- | --- | --- | --- | --- | --- | --- | --- | --- | --- | --- | --- | --- | --- | --- | --- | --- | --- | --- | --- | --- | --- | --- | --- | --- | --- | --- | --- | --- | --- | --- |
| ClC1=CC(=CC=C1)N2CCN(CCCN3\N=C4\C=C/C=C\N4C3=O)CC2 | 113 | 121 | 123 | 137 | 126 | 137 | 142 | 147 | 137 | 141 | 137 | – | – | – | – | – | – | – | – | – | – | – | – | – | – | – | – | – | – | – | – | – | – |
| CCOc1cc(N)c(Cl)cc1C(=O)NCC1CN(Cc2ccc(F)cc2)CCO1 (configuration not stated) | 102 | 115 | 106 | 108 | 114 | 108 | 106 | 113 | 122 | 109 | 104 | 85.2 | 120 | 125 | 118 | 119 | 120 | 102 | 120 | 128 | 111 | 107 | 113 | 115 | 122 | 118 | 116 | 111 | 125 | 112 | 111 | 107 | 107 |
| CC(C)(C)c1cc(C=C(C#N)C#N)cc(Br)c1O | 89.9 | 115 | 116 | 126 | 103 | 106 | 121 | 132 | 107 | 109 | 100 | 86 | 114 | 124 | 112 | 112 | 122 | 122 | 113 | 113 | 103 | 94.9 | 84.5 | 101 | 105 | 103 | 105 | 108 | 125 | 115 | 116 | 116 | 103 |
| CC(=O)N1CCN(c2ccc(OCc3nn(C)c(C)c3-c3cccc4c(CCCOc5cccc6ccccc56)c(C(=O)O)n(Cc5cccnc5)c34)cc2)CC1 | 110 | 125 | 120 | 124 | 130 | 129 | 127 | 67 | 22.8 | 19.6 | 16 | 107 | 130 | 119 | 117 | 138 | 128 | 126 | 85.2 | 32 | 23.9 | 22.7 | 118 | 125 | 130 | 131 | 136 | 139 | 129 | 123 | 24.9 | 19.5 | 21.2 |
| Oc1ccc(C2CCN(c3ccnc4ccccc34)CC2)cc1O | 108 | 109 | 97.5 | 101 | 107 | 123 | 108 | 120 | 98.9 | 95.7 | 48.6 | 101 | 107 | 115 | 101 | 123 | 124 | 113 | 123 | 94.1 | 82.9 | 55.6 | 91.9 | 99 | 97.9 | 83.8 | 104 | 96.4 | 103 | 109 | 111 | 98.1 | 70.9 |
| C\C1=C\C(=O)C2=C(C=CC=C2)C1=O | 116 | 108 | 120 | 125 | 133 | 133 | 137 | 124 | 129 | 125 | 140 | 100 | 122 | 117 | 134 | 132 | 126 | 126 | 134 | 128 | 131 | 127 | 119 | 117 | 131 | 130 | 140 | 128 | 135 | 151 | 128 | 148 | 134 |
| NC(=O)c1ncn([C@@H]2O[C@H](CO)[C@@H](O)[C@H]2O)n1 | 104 | 129 | 115 | 108 | 113 | 110 | 102 | 85.4 | 76.7 | 74.5 | 36.7 | 116 | 134 | 110 | 117 | 112 | 103 | 88 | 69.2 | 55.4 | 56.8 | 29.6 | 124 | 110 | 116 | 115 | 114 | 104 | 89.4 | 69.3 | 58.2 | 68.2 | 48.9 |
| CC(=O)O[C@@]1(CC[C@H]2[C@@H]3\C=C(C)/C4=C/C(=O)CC[C@]4(C)[C@H]3CC[C@]12C)C(C)=O | 100 | 102 | 99.9 | 110 | 101 | 108 | 107 | 110 | 109 | 99 | 108 | 115 | 111 | 107 | 96.1 | 109 | 123 | 130 | 107 | 110 | 116 | 119 | 88.1 | 92.1 | 95.5 | 113 | 102 | 112 | 107 | 118 | 105 | 86.8 | 112 |
